# Measurements published in the pKa sets of Baltruschat and Czodrowski (2020).
smiles,measurement,setting,value
O=C(O)CSc1ccc([N+](=O)[O-])cc1,pKa,acidic group,3.2
Nc1ccc2cnccc2c1,pKa,basic group,7.17
Cc1ccc(O)c(CO)c1,pKa,acidic group,10.2
CCOC(=O)C(Cc1ccc(C)cc1)C(C)=O (centres undefined),pKa,acidic group,11.9
O=C(O)CCc1c[nH]c[nH+]1,pKa,acidic group,4
N[C@@H]1C[C@@H]1N,pKa,basic group,9.04
CC(=O)c1ccc(/N=N/c2c(N)n[nH]c2N)cc1,pKa,basic group,3.32
CNCCN,pKa,basic group,10.4
Cc1ccccc1NC(C)(C)C,pKa,basic group,6.49
O=[N+]([O-])c1cccc([Se](=O)O)c1,pKa,acidic group,4.07
NCCCNCCC[NH3+],pKa,basic group,9.72
Cc1ccc(S(=O)(=O)[N-]CCC(=N)N(C)C)cc1,pKa,basic group,11.4
C#CC(CC)(CC)N(CC)C(C)C,pKa,basic group,8.2
Oc1ccc(F)cc1C[NH+]1CCCCC1,pKa,acidic group,8.81
C[N+](C)(C)CCS,pKa,acidic group,7.98
N#CC(C#N)=NNc1ccc(Cl)cc1,pKa,acidic group,6.15
same,pKa,basic group,-0.79
O=C(NO)c1ccncc1,pKa,acidic group,7.82
CCN(c1ccccc1)C(C)(C)C,pKa,basic group,8.02
OC(O)c1ccccc1,pKa,acidic group,12.4
COc1ccccc1/C=C\C(=O)O,pKa,acidic group,4.27
Cc1cccc(C(=O)O)c1I,pKa,acidic group,2.92
CN1CC(O)C2=C/C(=N\O)C(=O)C=C21 (centres undefined),pKa,acidic group,8.6
COc1cccc(C(=O)O)c1C,pKa,acidic group,3.72
Oc1cccc2c1-c1cccc(O)c1-2,pKa,acidic group,8.35
CC1(C)CC(Nc2ccccc2)=C/C(=N/c2ccccc2)C1,pKa,basic group,9.89
CC1CN(C)CCN1C (centres undefined),pKa,basic group,8.36
COc1cccnc1,pKa,basic group,4.89
Nc1ncccc1O,pKa,acidic group,9.5
CC#CC#CC(=O)O,pKa,acidic group,1.94
Nc1ccc(S(=O)(=O)Nc2nccc(N)n2)cc1,pKa,acidic group,9.44
COc1ccc(NC(=S)c2ccccc2)cc1,pKa,acidic group,11.4
N#CCC(=O)O,pKa,acidic group,2.46
N#CC(C#N)=NNc1c(Cl)cccc1Cl,pKa,acidic group,4.7
same,pKa,basic group,-0.67
CC(C)N(C)/C=[NH+]/c1ccc(-c2c[nH]cn2)cc1,pKa,basic group,5.52
CC1=C(CC(C)NCC(O)c2ccc(C)cc2)CCC1(C)C (centres undefined),pKa,basic group,8.71
CC(N)CC1CCCCC1 (centres undefined),pKa,basic group,10.1
C#CC(C)(C)NC(C)(C)CC,pKa,basic group,9
CC(=O)Nc1ccc(N)cc1,pKa,basic group,4.46
CN1CCc2cccc(c2)CCc2ccc1cc2,pKa,basic group,6.76
NC(=O)CC(=O)c1ccncc1,pKa,acidic group,7.91
SCCNc1ccccc1,pKa,acidic group,9.5
same,pKa,basic group,3.78
COC(=O)C(C)(C)c1c[nH]c(CO)n1,pKa,basic group,6.18
C1CCC(C2CCCN2)CC1 (centres undefined),pKa,basic group,10.8
Oc1cc(-c2ccccc2)n[nH]1,pKa,acidic group,11.4
Clc1cnc2c(ccc3cccnc32)c1,pKa,basic group,3.99
CC[Si](C)(C)CN,pKa,basic group,10.7
CCC(N)(CO)CO,pKa,basic group,8.8
O=C(O)c1ccc([N+](=O)[O-])cc1,pKa,acidic group,3.43
O=CC(c1ccccc1)c1ccccc1,pKa,acidic group,9.39
same,pKa,basic group,9.42
O=[N+]([O-])/C=C/c1cccc(O)c1,pKa,acidic group,9.05
NCc1ccccc1S(N)(=O)=O,pKa,acidic group,10.1
same,pKa,basic group,8.53
NC(=O)C(CCCCC(=O)O)c1ccccc1 (centres undefined),pKa,acidic group,4.79
CCN(CC)CCN,pKa,basic group,9.93
CCN(C)N(CC)CC,pKa,basic group,7.3
O=[N+]([O-])c1cc(-c2ccccc2)nnc1NCCN1CCOCC1,pKa,basic group,6.56
C[NH2+]C(C)C(=O)O (centres undefined),pKa,acidic group,2.22
O=C(O)c1cccc2cc3ccccc3cc12,pKa,acidic group,3.7
CCCN(CCC)CC(=O)Nc1c(C)cccc1C,pKa,basic group,7.68
c1ccc2cc(NCC[NH2+]c3ccc4ccccc4c3)ccc2c1,pKa,basic group,1.8
C[C@@H]1CCC[C@H](N(C)C)C1,pKa,basic group,10.5
CC1(C)CC(=O)CC1=O,pKa,acidic group,4.2
CCNC(C)C(=O)[O-] (centres undefined),pKa,basic group,10.2
Cc1ccc(C2=NCCC2)cc1,pKa,basic group,6.41
O=[N+]([O-])c1ccc(/C=N/O)cc1,pKa,acidic group,10
CC(C)(C)N1NC2CCC1CC2,pKa,basic group,9.54
O=[N+]([O-])c1ccc(C2NCCS2)cc1 (centres undefined),pKa,basic group,4.55
C[C@H]([C@H](O)c1ccccc1)N(C)C,pKa,basic group,10
CNS(=O)(=O)C(F)(F)F,pKa,acidic group,7.56
CN[C@H]1C[C@]1(C)[NH2+]C,pKa,basic group,5.52
